{"source": "patent US9241951B2", "about": "“Of gastrointestinal health, immunity and performance by dietary intervention” (BIOATLANTIS LTD, priority 2009, dated 2016)", "key": {"[1]": {"assay": "Piglet performance with lactose and SWE, Example 3", "format": "in vivo, pig"}, "[2]": {"assay": "Coefficient of total tract apparent digestibility, Example 3", "format": "in vivo, pig", "settings": "SWE − or +"}, "[3]": {"test_system": "Lactobacilli", "assay": "Faecal microbiology, Example 3", "format": "in vivo, pig", "settings": "SWE − or +", "description": "(§1) This experiment was carried out over two consecutive periods of 25 days. 240 piglets were selected after weaning at 24 days and assigned to one of four dietary treatments. Pigs in period 1 and 2 had initial live weights of 7.2 Kg and 7.8 Kg (±0.9 Kg), respectively. This experiment was designed as a 2×2 factorial. During the experiment (days 0-25) piglets were offered the following diets: (T1) 150 g/Kg lactose; (T2) 150 g/Kg lactose+SWE; (T3) 250 g/Kg lactose (T4) 250 g/Kg lactose+SWE. SWE was included at 2.8 g/Kg and derived from Laminaria digitata. It contained laminarin (112 g/Kg), fucoidan (89 g/Kg) and ash (799 g/Kg).\n(§2) Pigs were housed in groups of 4 (n=15/treatment) and weighed at weaning (day 0), day 7, 14 and 25. Pigs were fed ad libitum. Fresh faecal samples were collected on days 10 to 15 for determination of nutrient digestibility and VFA analysis. Fresh faecal samples were collected on day 10 for enumeration of E. coli and Lactobacilli (O'Connell et al., 2005).\n(§3) 1 g of faecal sample was serially diluted in maximum recovery diluent (MRD; Oxoid, Basingstoke, UK) and plated on selective agars. Lactobacillus spp. were isolated on de Man Rogosa Sharp agar (MRS, Oxoid). The API 50 CHL (BioMerieux, France) kit was used to confirm suspect Lactobacilli spp. E. coli species were isolated on MacConkey agar (Oxoid). Suspect colonies were confirmed with API 20E (BioMerieux, France)."}, "[4]": {"test_system": "Escherichia coli", "assay": "Faecal microbiology, Example 3", "format": "in vivo, pig", "settings": "SWE − or +", "description": "as §1, §2, §3"}, "[5]": {"test_system": "Lactobacilli", "assay": "Faecal microbiology, Example 4", "format": "in vivo, pig", "excerpt": "(§4) One hundred and ninety two piglets were weaned at twenty four days of age, with an initial live weight of 6.4±0.785 Kg and assigned to one of four dietary treatments or 21 days post weaning. The dietary treatments consisted of (T1) basal diet, (T2) basal diet with 300 ppm LAM, (T3) basal diet with 236 ppm FUC, (T4) Basal diet with 300 ppm LAM and 236 ppm FUC. Diets were formulated to have identical concentrations of digestible energy (DE) (16 MJ/Kg) and ileal digestible lysine (14 g/Kg). All amino acid requirements were met relative to lysine (Close, 1994). Chromium III oxide was added to the diets for determination of nutrient digestibility. The LAM and FUC were derived from Laminaria hyperborea.\n(§5) Piglets were housed in groups of 4 and offered feed twice daily. Water was supplied ad-libitum. Any pig displaying symptoms of illness was treated appropriately and recorded. Pigs were weighed on day 0 (day of weaning), 7, 14 and 21. Feed intake was monitored weekly. Fresh faecal samples were taken on day 10 and were analysed for E. coli and Lactobacilli concentrations. Faeces samples were collected from each pen on day 12-17 and were retained for chemical analysis. Fresh faecal samples were removed on day 14 and were frozen and retained for volatile fatty acid analysis. Fresh faecal samples were taken on day 17 for pH determination.\nA sample was serially diluted (1:10) in 9.0 ml aliquots of maximum recovery diluent (MRD, Oxoid, Basingstoke, UK), and spread plated (0.1 ml aliquots) onto selective agars. Lactobacillus spp. were isolated on de Man, Rogosa, Sharp agar (MRS, Oxoid) with overnight incubation at 37° C. in 5% CO2. The API 50 CHL (BioMerieux, France) kit was used to confirm suspect Lactobacilli spp. E. coli species were isolated on MacConkey agar (Oxoid), following aerobic incubation at 37° C. for 18-24 hours. Suspect colonies were confirmed with API 20E (BioMerieux, France)."}, "[6]": {"assay": "Pig performance post weaning with LAM and FUC, Example 4", "format": "in vivo", "settings": "for ADG: days 14-21", "excerpt": "as §4, §5"}, "[7]": {"settings": "Day 0-7, diet with 150 g/Kg lactose, SWE 2.8 g/Kg where included"}, "[8]": {"settings": "Day 0-7, diet with 250 g/Kg lactose, SWE 2.8 g/Kg where included"}, "[9]": {"settings": "Day 0-25, diet with 150 g/Kg lactose, SWE 2.8 g/Kg where included"}, "[10]": {"settings": "Day 0-25, diet with 250 g/Kg lactose, SWE 2.8 g/Kg where included"}, "[11]": {"settings": "Day 7-14, diet with 150 g/Kg lactose, SWE 2.8 g/Kg where included"}, "[12]": {"settings": "Day 7-14, diet with 250 g/Kg lactose, SWE 2.8 g/Kg where included"}, "[13]": {"settings": "Day 14-25, diet with 150 g/Kg lactose, SWE 2.8 g/Kg where included"}, "[14]": {"settings": "Day 14-25, diet with 250 g/Kg lactose, SWE 2.8 g/Kg where included"}}, "data": [{"compound": "OC[C@H]1O[C@@H](O[C@H]2[C@H](O)[C@@H](O)C(O)O[C@@H]2CO)[C@H](O)[C@@H](O)[C@H]1O", "note": "(stereo partly drawn) [Lactose, lactose]", "values": [{"measurement": "Average Daily Gain (ADG)", "setting": "[1]; Day 0-7, diet with 150 g/Kg lactose, SWE 2.8 g/Kg (L. digitata) where included", "value": 0.100, "unit": "kg/day"}, {"measurement": "Average Daily Feed Intake (ADFI)", "setting": "[1]; [7]", "value": 0.242, "unit": "kg/day"}, {"measurement": "Gain: Feed ratio", "setting": "[1]; [7]", "value": 0.413, "unit": "Kg/Kg"}, {"measurement": "Average Daily Gain (ADG)", "setting": "[1]; Day 0-7, diet with 250 g/Kg lactose, SWE 2.8 g/Kg (L. digitata) where included", "value": 0.146, "unit": "kg/day"}, {"measurement": "Average Daily Feed Intake (ADFI)", "setting": "[1]; [8]", "value": 0.239, "unit": "kg/day"}, {"measurement": "Gain: Feed ratio", "setting": "[1]; [8]", "value": 0.589, "unit": "Kg/Kg"}, {"measurement": "Average Daily Feed Intake (ADFI)", "setting": "[1]; [9]", "value": 0.446, "unit": "kg/day"}, {"measurement": "Average Daily Gain (ADG)", "setting": "[1]; [9]", "value": 0.275, "unit": "kg/day"}, {"measurement": "Gain: Feed ratio", "setting": "[1]; [9]", "value": 0.603, "unit": "Kg/Kg"}, {"measurement": "Average Daily Feed Intake (ADFI)", "setting": "[1]; [10]", "value": 0.458, "unit": "kg/day"}, {"measurement": "Average Daily Gain (ADG)", "setting": "[1]; [10]", "value": 0.287, "unit": "kg/day"}, {"measurement": "Gain: Feed ratio", "setting": "[1]; [10]", "value": 0.619, "unit": "Kg/Kg"}, {"measurement": "Average Daily Feed Intake (ADFI)", "setting": "[1]; [11]", "value": 0.415, "unit": "kg/day"}, {"measurement": "Average Daily Gain (ADG)", "setting": "[1]; [11]", "value": 0.302, "unit": "kg/day"}, {"measurement": "Gain: Feed ratio", "setting": "[1]; [11]", "value": 0.747, "unit": "Kg/Kg"}, {"measurement": "Average Daily Feed Intake (ADFI)", "setting": "[1]; [12]", "value": 0.450, "unit": "kg/day"}, {"measurement": "Average Daily Gain (ADG)", "setting": "[1]; [12]", "value": 0.325, "unit": "kg/day"}, {"measurement": "Gain: Feed ratio", "setting": "[1]; [12]", "value": 0.729, "unit": "Kg/Kg"}, {"measurement": "Average Daily Feed Intake (ADFI)", "setting": "[1]; [13]", "value": 0.682, "unit": "kg/day"}, {"measurement": "Average Daily Gain (ADG)", "setting": "[1]; [13]", "value": 0.438, "unit": "kg/day"}, {"measurement": "Gain: Feed ratio", "setting": "[1]; [13]", "value": 0.633, "unit": "Kg/Kg"}, {"measurement": "Average Daily Feed Intake (ADFI)", "setting": "[1]; [14]", "value": 0.683, "unit": "kg/day"}, {"measurement": "Average Daily Gain (ADG)", "setting": "[1]; [14]", "value": 0.388, "unit": "kg/day"}, {"measurement": "Gain: Feed ratio", "setting": "[1]; [14]", "value": 0.569, "unit": "Kg/Kg"}, {"measurement": "Digestibility Ash", "setting": "[2]; diet Lactose 150 g/Kg", "value": 53.30, "unit": "%"}, {"measurement": "Digestibility DM", "setting": "[2]; diet Lactose 150 g/Kg", "value": 87.75, "unit": "%"}, {"measurement": "Digestibility GE", "setting": "[2]; diet Lactose 150 g/Kg", "value": 85.93, "unit": "%"}, {"measurement": "Digestibility N", "setting": "[2]; diet Lactose 150 g/Kg", "value": 83.69, "unit": "%"}, {"measurement": "Digestibility NDF", "setting": "[2]; diet Lactose 150 g/Kg", "value": 37.55, "unit": "%"}, {"measurement": "Digestibility OM", "setting": "[2]; diet Lactose 150 g/Kg", "value": 89.16, "unit": "%"}, {"measurement": "Digestibility Ash", "setting": "[2]; diet Lactose 250 g/Kg", "value": 72.80, "unit": "%"}, {"measurement": "Digestibility DM", "setting": "[2]; diet Lactose 250 g/Kg", "value": 91.34, "unit": "%"}, {"measurement": "Digestibility GE", "setting": "[2]; diet Lactose 250 g/Kg", "value": 90.22, "unit": "%"}, {"measurement": "Digestibility N", "setting": "[2]; diet Lactose 250 g/Kg", "value": 86.86, "unit": "%"}, {"measurement": "Digestibility NDF", "setting": "[2]; diet Lactose 250 g/Kg", "value": 61.91, "unit": "%"}, {"measurement": "Digestibility OM", "setting": "[2]; diet Lactose 250 g/Kg", "value": 92.24, "unit": "%"}, {"measurement": "Bacterial populations Lactobacilli", "setting": "[3]; diet Lactose 150 g/Kg", "value": 8.46, "unit": "Log10 CFU/g faeces"}, {"measurement": "Bacterial populations Lactobacilli", "setting": "[3]; diet Lactose 250 g/Kg", "value": 8.19, "unit": "Log10 CFU/g faeces"}, {"measurement": "Bacterial populations Escherichia coli", "setting": "[4]; diet Lactose 150 g/Kg", "value": 6.30, "unit": "Log10 CFU/g faeces"}, {"measurement": "Bacterial populations Escherichia coli", "setting": "[4]; diet Lactose 250 g/Kg", "value": 5.70, "unit": "Log10 CFU/g faeces"}]}, {"compound": "fucoidan", "values": [{"measurement": "faecal Lactobacilli numbers", "setting": "[5]; FUC diet (236 ppm) v basal diet (8.93)", "value": 9.22}, {"measurement": "faecal lactobacilli populations", "setting": "[5]; FUC included with LAM", "value": "no effect"}, {"measurement": "ADG", "setting": "[6]; FUC added to a LAM diet", "value": "no effect"}, {"measurement": "ADG", "setting": "[6]; FUC diet (236 ppm) compared to basal diet", "value": "significantly higher"}, {"measurement": "average daily feed intake", "setting": "[6]; weaned pigs, 21 days, LAM 300 ppm, FUC 236 ppm", "value": "no effect"}]}]}
